Reference: patent US20100029702A1, “Method For Identification of Compound Having Anti-Anxiety Effect” (priority 2006, published 2010)

Experiments:
CHO-K1 cell strain = assay: Changes in intracellular Ca2+ concentration in CHO-K1 host cell not transfected (negative control); type: cell-based, Chinese hamster
Method: The specific method for measuring changes in the intracellular Ca^2+ concentration in the HA-ph01207#10-6 cell strain induced by CCK-8S (SEQ ID NO: 14) and the results are described below. The HA-ph01207#10-6 cell strain was seeded on a 96-well plate (a plate with a black wall and a transparent bottom) at a cell count of 2×10^4/100 μL medium/well and cultured at 37° C. in the presence of 5% CO2. As a medium, DMEM/F12 (Gibco) containing 10% fetal calf serum (Moregate) was used. On the following day, 50 μL of the medium was removed from each well, 50 μL of a loading buffer was added to each well, and the mixture was reacted at room temperature for 1.5 h, so that a fluorescent dye contained in the loading buffer should be taken up into the cell. The loading buffer was prepared by dissolving component A of the FLIPR Calcium 3 Assay Kit (Molecular Device) in a solution obtained by adding 0.1 mL of 500 mM probenecid (Sigma) to 9.9 mL of component B. After reaction, changes over time in the fluorescence intensity in each well after addition of CCK-8S (Peptide Institute, Inc.) were measured using the FLEX station (Molecular Device). Furthermore, similar measurement was performed for CCK-8NS (Peptide Institute, Inc.) and CCK-4 (Peptide Institute, Inc.). 0.52 mg of CCK-8S (SEQ ID NO: 14) was dissolved in 4.5 mL of 1% NaHCO3 (Wako) to prepare a solution having 0.1 mM concentration. 0.53 mg of CCK-8NS was dissolved in 0.50 mL of dimethyl sulfoxide (DMSO, Sigma), and then 4.50 mL of redistilled water H2O was added to prepare a solution having 0.1 mM concentration. 0.54 mg of CCK-4 was dissolved in 0.46 mL of DMSO, 4.09 mL of redistilled water was added to prepare a solution having 0.2 mM concentration. CCK-8S (SEQ ID NO: 14), CCK-8NS, and CCK-4 were diluted in phosphate-buffered physiological saline (PBS) to prepare 5 nM solutions, and 25 μL each was added (final concentration 1 nM) to perform measurement. As a positive control for including an increase in the intracellular Ca^2+ concentration, A23187 (Calbiochem) was used at a final concentration of 10 μM. As a negative control, the CHO-K1 cell strain used to prepare the HA-ph01207#10-6 cell strain as a host was used. Since the CHO-K1 cell strain was not transfected with the ph01207-expressing vector, the ph01207 gene product was not expressed.
Changes in the intracellular calcium (Ca^2+) concentration induced by CCK-8S were measured by a method similar to the method described in Example 5 using the 7tmHR stably-expressing strain and the hk01941 stably-expressing strain prepared in Example 7. As a control, a host cell not transfected with the 7tmHR-expressing vector or the hk01941-expressing vector was also used.
Cells were seeded in a 96-well plate (a plate with a black wall and a transparent bottom) at a cell count of 3×10^4/100 μL of medium/well and cultured overnight at 37° C. in a 5% CO2 incubator. On the following day, 50 μL of the medium was removed from each well, […] of a loading buffer was added to each well, and the mixture was reacted at room temperature for 1 h, so that a fluorescent dye contained in the loading buffer was taken up into the cell. The loading buffer was prepared by a method similar to the method described in Example 5. After reaction, changes over time in the fluorescence intensity in each well after addition of CCK-8S were measured using the FLEX station (Molecular Device). CCK-8S was used at a final concentration of 10 pM to 1 μM. Furthermore, as a positive control of the assay, A23187 was used at a final concentration of 20 μM.
Cells were seeded in a 96-well plate (a plate with a black wall and a transparent bottom) at a cell count of 3×10^4/100 μL of medium/well and cultured overnight at 37° C. in a 5% CO2 incubator. […]

7tmHR = target: T1, 7tmHR (Homo sapiens, UniProt O60241); assay: Changes in intracellular Ca2+ concentration in 7tmHR stably-expressing strain; type: cell-based
T1 construct: a vector expressing each full-length cDNA clone was constructed; expressed in transfected cells; host or cells: CHO-K1, 7tmHR/pcDNA3.1
T1 sequence (O60241 13-1585): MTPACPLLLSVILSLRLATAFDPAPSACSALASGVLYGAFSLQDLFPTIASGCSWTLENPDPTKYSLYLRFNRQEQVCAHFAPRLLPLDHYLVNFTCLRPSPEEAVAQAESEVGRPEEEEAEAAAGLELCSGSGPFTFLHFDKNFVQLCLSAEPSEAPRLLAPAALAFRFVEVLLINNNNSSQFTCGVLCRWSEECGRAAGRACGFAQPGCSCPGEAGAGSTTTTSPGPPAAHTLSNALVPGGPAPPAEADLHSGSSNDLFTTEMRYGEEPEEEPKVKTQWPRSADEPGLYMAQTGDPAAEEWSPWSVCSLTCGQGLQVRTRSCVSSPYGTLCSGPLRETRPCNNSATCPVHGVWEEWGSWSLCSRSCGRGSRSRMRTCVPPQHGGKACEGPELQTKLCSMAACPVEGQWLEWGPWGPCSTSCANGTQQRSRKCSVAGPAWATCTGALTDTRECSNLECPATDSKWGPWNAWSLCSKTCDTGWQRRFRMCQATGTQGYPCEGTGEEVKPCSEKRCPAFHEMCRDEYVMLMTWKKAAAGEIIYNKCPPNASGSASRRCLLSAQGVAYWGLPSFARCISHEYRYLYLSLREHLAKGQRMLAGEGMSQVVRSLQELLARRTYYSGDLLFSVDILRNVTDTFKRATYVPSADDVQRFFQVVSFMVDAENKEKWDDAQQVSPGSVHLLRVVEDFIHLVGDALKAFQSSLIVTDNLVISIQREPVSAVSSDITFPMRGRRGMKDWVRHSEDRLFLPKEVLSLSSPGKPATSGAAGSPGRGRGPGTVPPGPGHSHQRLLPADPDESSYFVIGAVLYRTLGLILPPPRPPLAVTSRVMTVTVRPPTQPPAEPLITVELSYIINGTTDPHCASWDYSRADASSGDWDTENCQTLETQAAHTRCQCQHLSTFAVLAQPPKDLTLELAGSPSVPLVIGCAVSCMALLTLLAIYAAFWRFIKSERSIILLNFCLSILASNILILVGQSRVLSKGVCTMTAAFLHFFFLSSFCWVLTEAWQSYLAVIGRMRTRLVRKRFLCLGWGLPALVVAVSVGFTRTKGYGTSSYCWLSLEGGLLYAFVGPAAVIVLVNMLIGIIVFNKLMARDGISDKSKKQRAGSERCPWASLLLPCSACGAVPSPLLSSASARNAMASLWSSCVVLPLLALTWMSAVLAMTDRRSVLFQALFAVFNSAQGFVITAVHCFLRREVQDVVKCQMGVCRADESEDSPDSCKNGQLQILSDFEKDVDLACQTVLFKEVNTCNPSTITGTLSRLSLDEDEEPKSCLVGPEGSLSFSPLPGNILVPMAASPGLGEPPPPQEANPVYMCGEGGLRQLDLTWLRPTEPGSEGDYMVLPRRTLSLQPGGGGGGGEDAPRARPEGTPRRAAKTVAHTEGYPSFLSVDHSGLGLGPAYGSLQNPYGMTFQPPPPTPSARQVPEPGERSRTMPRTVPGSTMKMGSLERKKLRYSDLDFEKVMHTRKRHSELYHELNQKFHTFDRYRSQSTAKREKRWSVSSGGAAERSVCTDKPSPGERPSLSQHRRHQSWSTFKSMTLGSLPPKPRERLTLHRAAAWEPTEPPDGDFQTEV
Method: The 7tmHR stably-expressing strain and the hk01941 stably-expressing strain were prepared by transfecting the 7tmHR-expressing vector (7tmHR/pcDNA3.1) and the hk01941-expressing vector (hk01941/pcDNA3.1), respectively, into a CHO-K1 cell strain. Specifically, the expression vector was mixed with Lipofectamine 2000, (may be referred to as LF2000, Invitrogen) (4 μg DNA/250 μL of DMEM/F12 medium+10 μL of LF2000/250 μL DMEM/F12 medium) and added the CHO-K1 strain (2 mL medium/well) cultured in a 6-well plate to be transfected thereinto. On the following day, cells were recovered and seeded in a 96-well plate at cell density of 1 cell/well, cultured in a selective medium containing G418 (400 μg/mL) (DMEM/F 12 medium containing 10% FCS), and screened for expression cell strains. […]
Changes in the intracellular calcium (Ca^2+) concentration induced by CCK-8S were measured by a method similar to the method described in Example 5 using the 7tmHR stably-expressing strain and the hk01941 stably-expressing strain prepared in Example 7. […]
Cells were seeded in a 96-well plate (a plate with a black wall and a transparent bottom) at a cell count of 3×10^4/100 μL of medium/well and cultured overnight at 37° C. in a 5% CO2 incubator. […] After reaction, changes over time in the fluorescence intensity in each well after addition of CCK-8S were measured using the FLEX station (Molecular Device). […]

Row | Compound | Change in intracellular Ca2+ concentration (fluorescence intensity) (CHO-K1 cell strain; CHO-K1 not transfected, A23187 10 μM (Example 5)) | Change in intracellular Ca2+ concentration (fluorescence intensity) (CHO-K1 cell strain; host cell CHO-K1 not transfected, A23187 20 μM (Examples 8, 9)) | Change in intracellular Ca2+ concentration (fluorescence intensity) (7tmHR; 7tmHR/CHO#6, A23187 20 μM, positive control) | Change in intracellular Ca2+ concentration (fluorescence intensity) (CHO-K1 cell strain; CHO-K1 not transfected, peptide 1 nM (Example 5)) | Change in intracellular calcium concentration after addition of CCK-8S (CHO-K1 cell strain; host cell not transfected with the expressing vector (Examples 8, 9)) | Change in intracellular Ca2+ concentration after addition of CCK-8S (7tmHR; 7tmHR stably-expressing strain, CCK-8S 10 pM to 1 μM, figure at 1 nM)
1 | CNc1ccc2oc(C[C@H]3O[C@@]4(CC[C@H]3C)O[C@H]([C@H](C)C(=O)c3ccc[nH]3)[C@H](C)C[C@H]4C)nc2c1C(=O)O [A23187] | increased | increased | increased | – | – | –
2 | cholecystokinin octapeptide sulfated form [CCK-8S] | – | – | – | not increased | no change | increase
